Results taken from patent US10787453B2, “Octahydropyrrolopyrroles their preparation and use” (The Trustees of Columbia University in the City of New York, priority 2013, dated 2020).

Legend:
[1] = test system: wild-type and Abca4−/− mice; assay: Efficacy in a mammalian model; type: in vivo, mouse; details: orally dosed for 3 weeks at 30 mg/kg
Method: (§1) The effectiveness of the compounds listed in Example 1-46 are tested in wild-type and Abca4−/− mice. The Abca4−/− mouse model manifests accelerated accumulation of lipofuscin in the RPE and is considered a pre-clinical efficacy model for a drug reducing lipofuscin accumulation. Compounds are orally dosed for 3 weeks at 30 mg/kg. There is a reduction in the serum RBP4 level in treated animals. The levels of A2E/isoA2E and other bisretinoids are reduced in treated mice.
as §1, with “octahydropyrrolopyrroles 66 and 67” for “compounds listed in Example 1-46”
as §1, with “octahydropyrrolopyrroles of the present invention” for “compounds listed in Example 1-46”

RBP4 [2] = target: T1, RBP4 (Homo sapiens (Human), UniProt P02753); assay: Scintillation proximity RBP4 binding assay (SPA); details: for IC50: 10 nM 3H-Retinol, 50 nM biotinylated RBP4
Method: Scintillation Proximity RBP4 Binding Assay
Untagged human RBP4 purified from urine of tubular proteinuria patients was purchased from Fitzgerald Industries International. It was biotinylated using the EZ-Link Sulfo-NHS-LC-Biotinylation kit from Pierce following the manufacturer's recommendations. Binding experiments were performed in 96-well plates (OptiPlate, PerkinElmer) in a final assay volume of 100 μl per well in SPA buffer (1×PBS, pH 7.4, 1 mM EDTA, 0.1% BSA, 0.5% CHAPS). The reaction mix contained 10 nM ^3H-Retinol (48.7 Ci/mmol; PerkinElmer), 0.3 mg/well Streptavidin-PVT beads, 50 nM biotinylated RBP4 and a test compound. Nonspecific binding was determined in the presence of 20 μM of unlabeled retinol. The reaction mix was assembled in the dark under dim red light. The plates were sealed with clear tape (TopSeal-A: 96-well microplate, PerkinElmer), wrapped in the aluminum foil, and allowed to equilibrate 6 hours at room temperature followed by overnight incubation at +4° C. Radiocounts were measured using a TopCount NXT counter (Packard Instrument Company).

RBP4-TTR interaction [3] = target: T2, RBP4-TTR interaction (Homo sapiens (Human), UniProt P02753); assay: TR-FRET (HTRF) assay for retinol-induced RBP4-TTR interaction; type: biochemical; details: for IC50: in the presence of 1 μM retinol, read-out: HTRF assay for antagonists of RBP4-TTR interaction IC50
Description: TR-FRET Assay for Retinol-Induced RBP4-TTR Interaction
Binding of a desired RBP4 antagonist displaces retinol and induces hindrance for RBP4-TTR interaction resulting in the decreased FRET signal (FIG. 7). Bacterially expressed MBP-RBP4 and untagged TTR were used in this assay. For the use in the TR-FRET assay the maltose binding protein (MBP)-tagged human RBP4 fragment (amino acids 19-201) was expressed in the Gold(DE3)pLysS E. coli strain (Stratagene) using the pMAL-c4x vector. Following cell lysis, recombinant RBP4 was purified from the soluble fraction using the ACTA FPLC system (GE Healthcare) equipped with the 5-ml the MBP Trap HP column. Human untagged TTR was purchased from Calbiochem. Untagged TTR was labeled directly with Eu^3+ Cryptate-NHS using the HTRF Cryptate Labeling kit from CisBio following the manufacturer's recommendations. HTRF assay was performed in white low volume 384 well plates (Greiner-Bio) in a final assay volume of 16 μl per well. The reaction buffer contained 10 mM Tris-HCl pH 7.5, 1 mM DTT, 0.05% NP-40, 0.05% Prionex, 6% glycerol, and 400 mM KF. Each reaction contained 60 nM MBP-RBP4 and 2 nM TTR-Eu along with 26.7 nM of anti-MBP antibody conjugated with d2 (Cisbio). Titration of test compounds in this assay was conducted in the presence of 1 μM retinol. All reactions were assembled in the dark under dim red light and incubated overnight at +4° C. wrapped in aluminum foil. TR-FRET signal was measured in the SpectraMax M5e Multimode Plate Reader (Molecular Device). Fluorescence was excited at 337 nm and two readings per well were taken: Reading 1 for time-gated energy transfer from Eu(K) to d2 (337 nm excitation, 668 nm emission, counting delay 75 microseconds, counting window 100 microseconds) and Reading 2 for Eu(K) time-gated fluorescence (337 nm excitation, 620 nm emission, counting delay 400 microseconds, counting window 400 microseconds). The TR-FRET signal was expressed as the ratio of fluorescence intensity: Flu665/Flu620×10,000.

RBP4 [4] = target: T1, RBP4; details: cited from earlier work
RBP4-TTR interaction [5] = target: T2, RBP4-TTR interaction; details: cited from earlier work
serum RBP4 and retinol = details: in vivo; cited from earlier work
Abca4−/− mice = details: cited from earlier work
[6] = test system: retinal pigment epithelium cells; details: many cell types, including retinal pigment epithelium cells; cited from earlier work
mice = details: cited from earlier work

| Structure (SMILES) | levels of A2-DHP-PE and atRAL di-PE [1] | levels of A2E/isoA2E and other bisretinoids [1] | serum RBP4 level [1] | RBP4 binding (SPA), in words (RBP4 [2]) | IC50 (RBP4 [2]) | antagonism of retinol-dependent RBP4-TTR interaction (HTRF), in words (RBP4-TTR interaction [3]) | IC50 (RBP4-TTR interaction [3]) | binding to RBP4 (RBP4 [4]) | displacement of all-trans retinol from RBP4 (RBP4 [4]) | RBP4-TTR interaction (RBP4-TTR interaction [5]) | ocular all-trans retinol uptake (serum RBP4 and retinol) | serum RBP4 and retinol (serum RBP4 and retinol) | A2E production (Abca4−/− mice) | induction of apoptosis [6] | formation of hemangiosarcomas (mice) |
| --- | --- | --- | --- | --- | --- | --- | --- | --- | --- | --- | --- | --- | --- | --- | --- |
| Cc1cc(C(=O)O)nc(N2C[C@@H]3CN(c4ccccc4C(F)(F)F)C[C@@H]3C2)n1 [Compound 67, 6-Methyl-2-((3aR,6aS)-5-(2-(trifluoromethyl)phenyl)hexahydropyrrolo[3,4-c]pyrrol-2(1H)-yl)pyrimidine-4-carboxylic Acid] | also reduced | reduced | reduction |  |  |  |  |  |  |  |  |  |  |  |  |
| COC(=O)c1cc(C)nc(N2C[C@@H]3CN(c4ccccc4C(F)(F)F)C[C@@H]3C2)n1 [Compound 66, Methyl 6-methyl-2-((3aR,6aS)-5-(2-(trifluoromethyl)phenyl)hexahydropyrrolo[3,4-c]pyrrol-2(1H)-yl)pyrimidine-4-carboxylate] | also reduced | reduced | reduction | binded to RBP4 | 3.9 nM | antagonized retinol-dependent RBP4-TTR interaction | 74 nM |  |  |  |  |  |  |  |  |
| Cc1ccc2nnc(C(=O)N3C[C@@H]4CN(c5ccccc5C(F)(F)F)C[C@@H]4C3)n2c1 [Compound 65, (6-Methyl-[1,2,4]triazolo[4,3-a]pyridin-3-yl)((3aR,6aS)-5-(2-(trifluoromethyl)phenyl)hexahydropyrrolo[3,4-c]pyrrol-2 (1H)-yl)methanone] |  |  |  | binded to RBP4 | 1.68 nM | antagonized retinol-dependent RBP4-TTR interaction | 20.8 nM |  |  |  |  |  |  |  |  |
| CC1=C(/C=C/C(C)=C/C=C/C(C)=C/C(=O)Nc2ccc(O)cc2)C(C)(C)CCC1 [fenretinide, N-(4-hydroxy-phenyl)retinamide] |  |  |  |  |  |  |  | bind to RBP4 | displace all-trans retinol from RBP4 | disrupt the RBP4-TTR interaction | inhibit ocular all-trans retinol uptake | reduce serum RBP4 and retinol | reduced A2E production | extremely active inducer of apoptosis | stimulate formation of hemangiosarcomas |
